The record followed here is PubChem BioAssay AID488867 (Broad Institute, 2010).

Calls of active or inactive are those of the source.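 How the source made its calls: active means a rising curve with AC50 no higher than ten times the top valid dose of that compound; inconclusive means flat curve between 30 and 70 percent, or failed fit; inactive means the rest.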

Experiment [1] has as its system INS-1E cytokine-induced apoptosis, JC-1 mitochondrial potential, 48 h. Briefly: INS-1E mitochondrial potential loss inhibitors – cell-based, JC-1 fluorescence, dry powder, set 2, dose response (AID 488867).
Test in experiment [2]: as above
Particulars: INS-1E cytokine-induced apoptosis, JC-1 mitochondrial potential, 48 h.

By AC50 is commonly meant the midpoint of the concentration-response curve, whichever way the signal moves. Consider `COc1ccc(S(=O)(=O)N(C)C[C@@H]2Oc3c(NC(=O)Nc4cccc5ccccc45)cccc3C(=O)N([C@H](C)CO)C[C@H]2C)cc1`, for which, in experiment [1], the AC50 was > 23.5 µM (inactive).

As for `COc1ccc(S(=O)(=O)N(C)C[C@@H]2Oc3c(NC(=O)Nc4ccccc4)cccc3C(=O)N([C@H](C)CO)C[C@H]2C)cc1`, the AC50 in experiment [1] is > 26 µM (inactive).

For `COc1ccc(S(=O)(=O)N(C)C[C@@H]2Oc3c(NC(=O)Nc4cccc5ccccc45)cccc3C(=O)N(C(C)C)C[C@H]2C)cc1`, the protection from cytokine-induced depolarization in experiment [2] (at 26 µM (top of the series)) is 36.6% (inactive).

For `C[C@@H]1CN([C@@H](C)CO)C(=O)c2cccc(NC(=O)Nc3cccc4ccccc34)c2O[C@H]1CN(C)CC1CC1`, in experiment [2] (at 26 µM (top of the series)), the protection from cytokine-induced depolarization is 10.5% (inactive).

For the compound `COc1ccc(NC(=O)Nc2cccc3c2O[C@@H](CN(C)S(=O)(=O)c2ccc(OC)cc2)[C@H](C)CN([C@@H](C)CO)C3=O)cc1`, in experiment [2] (at 26 µM (top of the series)), the protection from cytokine-induced depolarization was 0.556% (inactive).

Consider `C[C@H]1CN([C@@H](C)CO)C(=O)c2cccc(NC(=O)NC3CCCCC3)c2O[C@@H]1CN(C)S(C)(=O)=O`, for which the protection from cytokine-induced depolarization in experiment [2] (at 26 µM (top of the series)) is -1.29% (inactive).

On to `C[C@@H]1CN([C@@H](C)CO)C(=O)c2cccc(NC(=O)Nc3cccc4ccccc34)c2O[C@H]1CN(C)S(=O)(=O)c1ccc(F)cc1`, for which the protection from cytokine-induced depolarization in experiment [2] (at 26 µM (top of the series)) is 4.49% (inactive).

On to `COc1ccccc1S(=O)(=O)N(C)C[C@@H]1Oc2c(NC(=O)Nc3cccc4ccccc34)cccc2C(=O)N([C@@H](C)CO)C[C@H]1C`, for which, in experiment [2] (at 26 µM (top of the series)), the protection from cytokine-induced depolarization was -3.43% (inactive).

Turning to `COc1ccc(S(=O)(=O)N(C)C[C@@H]2Oc3c(NS(=O)(=O)c4ccc(C)cc4)cccc3C(=O)N([C@@H](C)CO)C[C@H]2C)cc1`, the protection from cytokine-induced depolarization in experiment [2] (at 23.5 µM (top of the series)) is -2.55% (inactive).

`C[C@@H]1CN([C@@H](C)CO)C(=O)c2cccc(NC(=O)Nc3ccccc3)c2O[C@H]1CN(C)S(=O)(=O)c1ccc(F)cc1`: the protection from cytokine-induced depolarization in experiment [2] (at 26 µM (top of the series)) is 7.91% (inactive).

For the compound `COc1ccc(S(=O)(=O)N(C)C[C@@H]2Oc3c(NS(C)(=O)=O)cccc3C(=O)N([C@@H](C)CO)C[C@H]2C)cc1`, the protection from cytokine-induced depolarization in experiment [2] (at 26 µM (top of the series)) was -7.47% (inactive).

For the compound `C[C@@H]1CN([C@@H](C)CO)C(=O)c2cccc(NC(=O)Nc3ccccc3)c2O[C@H]1CN(C)S(=O)(=O)c1ccc(Cl)cc1`, in experiment [2] (at 26 µM (top of the series)), the protection from cytokine-induced depolarization is 17.7% (inactive).

For `Cc1noc(C)c1NC(=O)N(C)C[C@@H]1Oc2c(NC(=O)Nc3cccc4ccccc34)cccc2C(=O)N([C@@H](C)CO)C[C@H]1C`, the protection from cytokine-induced depolarization in experiment [2] (at 26 µM (top of the series)) was 12.1% (inactive).

Take `C[C@@H]1CN([C@@H](C)CO)C(=O)c2cccc(NC(=O)Nc3cccc4ccccc34)c2O[C@H]1CN(C)S(=O)(=O)c1ccccc1F`: the protection from cytokine-induced depolarization in experiment [2] (at 26 µM (top of the series)) is -16.5% (inactive).

In the case of `COc1ccc(S(=O)(=O)N(C)C[C@@H]2Oc3c(NC(=O)c4ccc(-c5nccs5)cc4)cccc3C(=O)N([C@@H](C)CO)C[C@H]2C)cc1`, the protection from cytokine-induced depolarization in experiment [2] (at 26 µM (top of the series)) is -3.02% (inactive).

Take `COc1ccc(S(=O)(=O)N(C)C[C@@H]2Oc3c(NC(=O)c4cnccn4)cccc3C(=O)N([C@@H](C)CO)C[C@H]2C)cc1`: the protection from cytokine-induced depolarization in experiment [2] (at 26 µM (top of the series)) was -9.35% (inactive).

As to `C[C@@H]1CN([C@@H](C)CO)C(=O)c2cccc(NC(=O)Nc3cccc4ccccc34)c2O[C@H]1CN(C)S(=O)(=O)c1ccc2c(c1)OCCO2`, the figures for the protection from cytokine-induced depolarization in experiment [2] (at 12 µM (top of the series)) and in experiment [2] (at 26 µM (top of the series)) were 29.7% (inactive) and 26.8% (inactive), respectively.

On to `C[C@@H]1CN([C@H](C)CO)C(=O)c2cccc(NC(=O)Nc3cccc4ccccc34)c2O[C@H]1CN(C)S(=O)(=O)c1ccc(Cl)cc1`, for which, in experiment [2] (at 26 µM (top of the series)), the protection from cytokine-induced depolarization is 4.01% (inactive).

As for `COc1ccc(S(=O)(=O)N(C)C[C@@H]2Oc3c(NC(=O)c4ccncc4)cccc3C(=O)N([C@@H](C)CO)C[C@H]2C)cc1`, the protection from cytokine-induced depolarization in experiment [2] (at 26 µM (top of the series)) was -1.06% (inactive).

Consider `COc1ccc(S(=O)(=O)N(C)C[C@@H]2Oc3c(NC(=O)Nc4cccc5ccccc45)cccc3C(=O)N([C@@H](C)CO)C[C@H]2C)cc1Cl`, for which the protection from cytokine-induced depolarization in experiment [2] (at 26 µM (top of the series)) is -12% (inactive).

Turning to `C[C@@H]1CN([C@@H](C)CO)C(=O)c2cccc(NC(=O)Nc3cccc4ccccc34)c2O[C@H]1CN(C)S(=O)(=O)c1ccc2c(c1)oc(=O)n2C`, the protection from cytokine-induced depolarization in experiment [2] (at 26 µM (top of the series)) is -5.34% (inactive).

Consider `COc1ccc(S(=O)(=O)N(C)C[C@@H]2Oc3c(NC(=O)C4CC4)cccc3C(=O)N([C@@H](C)CO)C[C@H]2C)cc1`, for which, in experiment [2] (at 23.5 µM (top of the series)), the protection from cytokine-induced depolarization is -7.4% (inactive).

`C[C@@H]1CN([C@@H](C)CO)C(=O)c2cccc(NC(=O)Nc3ccc(F)cc3)c2O[C@H]1CN(C)S(=O)(=O)c1ccc(Cl)cc1`: in experiment [2] (at 26 µM (top of the series)), the protection from cytokine-induced depolarization is 8.02% (inactive).

As to `Cc1ccc(S(=O)(=O)N(C)C[C@@H]2Oc3c(NC(=O)Nc4ccc(F)cc4)cccc3C(=O)N([C@@H](C)CO)C[C@H]2C)cc1`, in experiment [2] (at 26 µM (top of the series)), the protection from cytokine-induced depolarization was 10.4% (inactive).

Take `COc1ccc(S(=O)(=O)N(C)C[C@@H]2Oc3c(NC(=O)C4CCCCC4)cccc3C(=O)N([C@@H](C)CO)C[C@H]2C)cc1`: the protection from cytokine-induced depolarization in experiment [2] (at 26 µM (top of the series)) is 2.77% (inactive).

For `C[C@@H]1CN([C@@H](C)CO)C(=O)c2cccc(NS(=O)(=O)c3ccccc3)c2O[C@H]1CN(C)Cc1ccc(C(F)(F)F)cc1`, in experiment [2] (at 26 µM (top of the series)), the protection from cytokine-induced depolarization is -2.49% (inactive).

As for `COc1ccc(S(=O)(=O)N(C)C[C@@H]2Oc3c(NC(=O)c4cc(C)nn4C)cccc3C(=O)N([C@@H](C)CO)C[C@H]2C)cc1`, the protection from cytokine-induced depolarization in experiment [2] (at 26 µM (top of the series)) was 1.8% (inactive).

In the case of `C[C@@H]1CN([C@@H](C)CO)C(=O)c2cccc(NC(=O)Nc3cccc4ccccc34)c2O[C@H]1CN(C)C(=O)Nc1ccc(C(F)(F)F)cc1`, in experiment [2] (at 23.5 µM (top of the series)), the protection from cytokine-induced depolarization is 7.29% (inactive).

As for `C[C@@H]1CN([C@@H](C)CO)C(=O)c2cccc(NC(=O)Nc3cccc(Cl)c3Cl)c2O[C@H]1CN(C)S(=O)(=O)c1ccc2c(c1)OCCO2`, the protection from cytokine-induced depolarization in experiment [2] (at 26 µM (top of the series)) is 8.05% (inactive).

Consider `COc1cccc(S(=O)(=O)N(C)C[C@@H]2Oc3c(NC(=O)Nc4cccc5ccccc45)cccc3C(=O)N([C@@H](C)CO)C[C@H]2C)c1`, for which the protection from cytokine-induced depolarization in experiment [2] (at 26 µM (top of the series)) was 5.29% (inactive).

As for `COc1ccc(S(=O)(=O)N(C)C[C@@H]2Oc3c(NC(=O)c4cccc5ccccc45)cccc3C(=O)N([C@@H](C)CO)C[C@H]2C)cc1`, the protection from cytokine-induced depolarization in experiment [2] (at 26 µM (top of the series)) is 4.73% (inactive).

`C[C@@H]1CN([C@@H](C)CO)C(=O)c2cccc(NC(=O)Nc3cccc4ccccc34)c2O[C@H]1CN(C)S(C)(=O)=O`: the protection from cytokine-induced depolarization in experiment [2] (at 26 µM (top of the series)) was 2.48% (inactive).

In the case of `C[C@@H]1CN([C@@H](C)CO)C(=O)c2cccc(NC(=O)Nc3cccc4ccccc34)c2O[C@H]1CN(C)S(=O)(=O)c1cccs1`, the protection from cytokine-induced depolarization in experiment [2] (at 26 µM (top of the series)) is 3.88% (inactive).

Regarding `COc1ccc(S(=O)(=O)N(C)C[C@@H]2Oc3c(NC(=O)C4CCOCC4)cccc3C(=O)N([C@@H](C)CO)C[C@H]2C)cc1`, in experiment [2] (at 23.5 µM (top of the series)), the protection from cytokine-induced depolarization is 3.35% (inactive).

With `C[C@@H]1CN([C@@H](C)CO)C(=O)c2cccc(NC(=O)Nc3ccc(F)cc3)c2O[C@H]1CN(C)S(=O)(=O)c1ccc(F)cc1`, in experiment [2] (at 26 µM (top of the series)), the protection from cytokine-induced depolarization was 11.7% (inactive).

As to `CNC[C@@H]1Oc2c(NC(=O)Nc3cccc4ccccc34)cccc2C(=O)N([C@@H](C)CO)C[C@H]1C`, in experiment [2] (at 26 µM (top of the series)), the protection from cytokine-induced depolarization is 9.02% (inactive).

In the case of `Cc1ccc(S(=O)(=O)N(C)C[C@@H]2Oc3c(NC(=O)Nc4ccccc4)cccc3C(=O)N([C@H](C)CO)C[C@H]2C)cc1`, in experiment [2] (at 26 µM (top of the series)), the protection from cytokine-induced depolarization was 11.2% (inactive).

For `COc1ccc(S(=O)(=O)Nc2cccc3c2O[C@@H](CN(C)S(=O)(=O)c2ccc(OC)cc2)[C@H](C)CN([C@@H](C)CO)C3=O)cc1`, in experiment [2] (at 26 µM (top of the series)), the protection from cytokine-induced depolarization is 3.9% (inactive).

For the compound `COc1ccc(S(=O)(=O)N(C)C[C@@H]2Oc3c(NS(=O)(=O)c4ccc(Cl)cc4)cccc3C(=O)N([C@@H](C)CO)C[C@H]2C)cc1`, the protection from cytokine-induced depolarization in experiment [2] (at 26 µM (top of the series)) was -6.3% (inactive).

For the compound `C[C@@H]1CN([C@@H](C)CO)C(=O)c2cccc(NC(=O)Nc3cccc4ccccc34)c2O[C@H]1CN(C)S(=O)(=O)c1ccccc1`, the protection from cytokine-induced depolarization in experiment [2] (at 26 µM (top of the series)) was 8.02% (inactive).

For `COc1ccc(S(=O)(=O)N(C)C[C@@H]2Oc3c(NC(=O)Nc4cccc5ccccc45)cccc3C(=O)N([C@@H](C)CO)C[C@H]2C)cc1C`, the protection from cytokine-induced depolarization in experiment [2] (at 26 µM (top of the series)) is -8.34% (inactive).

As for `N#Cc1ccc2cc(Br)c(C(F)(F)P(=O)(O)O)cc2c1`, the protection from cytokine-induced depolarization in experiment [2] (at 26 µM (top of the series)) is -2.22% (inactive).

On to `C[C@@H]1CN([C@@H](C)CO)C(=O)c2cccc(NC(=O)Nc3cccc4ccccc34)c2O[C@H]1CN(C)C(=O)Nc1ccc(F)cc1`, for which, in experiment [2] (at 26 µM (top of the series)), the protection from cytokine-induced depolarization was 9.03% (inactive).

For `COc1ccc(S(=O)(=O)N(C)C[C@@H]2Oc3c(NC(=O)Nc4cccc5ccccc45)cccc3C(=O)N([C@@H](C)CO)C[C@H]2C)cc1F`, the protection from cytokine-induced depolarization in experiment [2] (at 26 µM (top of the series)) is -3.4% (inactive).

As to `C[C@@H]1CN([C@@H](C)CO)C(=O)c2cccc(NC(=O)Nc3cccc4ccccc34)c2O[C@H]1CN(C)S(=O)(=O)c1cn(C)cn1`, the protection from cytokine-induced depolarization in experiment [2] (at 26 µM (top of the series)) was 6.5% (inactive).

Consider `COc1ccc(S(=O)(=O)N(C)C[C@H]2Oc3c(NC(=O)Nc4cccc5ccccc45)cccc3C(=O)N([C@H](C)CO)C[C@H]2C)cc1`, for which, in experiment [2] (at 26 µM (top of the series)), the protection from cytokine-induced depolarization was -8.55% (inactive).

Turning to `COc1ccc(NC(=O)N(C)C[C@@H]2Oc3c(NC(=O)Nc4cccc5ccccc45)cccc3C(=O)N([C@@H](C)CO)C[C@H]2C)cc1`, in experiment [2] (at 26 µM (top of the series)), the protection from cytokine-induced depolarization is 0.86% (inactive).

For the compound `COc1ccc(S(=O)(=O)N(C)C[C@@H]2Oc3c(NS(=O)(=O)c4cn(C)cn4)cccc3C(=O)N([C@@H](C)CO)C[C@H]2C)cc1`, the protection from cytokine-induced depolarization in experiment [2] (at 26 µM (top of the series)) was -9.04% (inactive).

For the compound `C[C@@H]1CN([C@@H](C)CO)C(=O)c2cccc(NC(=O)Nc3cccc4ccccc34)c2O[C@H]1CN(C)S(=O)(=O)c1ccc2c(c1)OCO2`, the protection from cytokine-induced depolarization in experiment [2] (at 26 µM (top of the series)) is 32.4% (inactive).

On to `C[C@@H]1CN([C@@H](C)CO)C(=O)c2cccc(NC(=O)Nc3cccc4ccccc34)c2O[C@H]1CN(C)S(=O)(=O)c1cccc(F)c1`, for which, in experiment [2] (at 26 µM (top of the series)), the protection from cytokine-induced depolarization was -9.88% (inactive).
